The values that follow are results of earlier work, collected in US11484035B2, “Synergistic composition of a nematicide” (TELLURIS BIOTECH INDIA PRIVATE LIMITED, priority 2017, dated 2022).

The data set relates to nematodes. The conditions noted are these: individual peptides.

On to “FPKFMQLHQKFY (Caenorhabditis elegans) [Peptide 12, 12 amino acid peptide, 529-540 amino acid stretch of CED-4 protein]”, for which the “effective concentration for nematicidal activity” value (shortened to “effective concentration”) is “about 1 mg/ml”. For “RQMLDRKLLLGNVPKQMTC (Caenorhabditis elegans) [Peptide 3, 19 amino acid peptide, 112-130 amino acid stretch of CED-4 protein]”, the “effective concentration” value was “about 1 mg/ml”. “DLLRPVVIAPQFSRQ (Caenorhabditis elegans) [Peptide 2, 15 amino acid peptide, 99-113 amino acid stretch of CED-4 protein]”: the “effective concentration” value was “about 1 mg/ml”.
